A word on the IC50: it is the midpoint of a concentration-inhibition curve.

Read-outs that look alike come from different tables or passages of the source.

Our source for the IC50 values is patent US10766864B2, “Morphinan derivatives for the treatment of neuropathic pain” (Nektar Therapeutics, priority 2015, dated 2020).

One test deals with mu opioid receptor (MOR) (Homo sapiens (Human), UniProt P35372). Description: Competitive radioligand binding at MOR ([3H] Naloxone). How it is done:
(§1) Receptor Binding at MOR and NMDA.
(§2) Affinities of various compounds were measured in vitro using competitive radioligand binding assays. Serial dilutions of test compounds were incubated with membranes prepared from CHO-K1 cells expressing the mu opioid receptor (MOR; for opioid receptor binding) or rat forebrain membranes (for NMDA receptor binding). 2 nM [^3H] Naloxone (MOR) or 0.2 nM [^3H] MK801 (NMDA) were used as the specific, competitive radioligands. 10 uM Naloxone (MOR), or 10 uM MK801 (NMDA) was used to determine non-specific binding. Bound radioactivity was measured using a scintillation counter & IC50 values for test compounds were determined by non-linear regression analysis using a one-site competition model (Graph Pad Prizm). Due to each test compound being solubilized in a buffered system for the assay, the results presented herein reflect the free base activity.

The next test has as its target NMDA receptor. Description: Competitive radioligand binding at NMDA receptor ([3H] MK801), rat forebrain membranes. The conditions noted are these: 0.2 nM [3H] MK801, reflects free base activity. Here is the method: as §1, §2
[1] abbreviates: membranes from CHO-K1 cells expressing MOR, 2 nM [3H] Naloxone, reflects free base activity, read-out: MOR IC50.

Consider `COCCOCCN1CC[C@]23CCCC[C@H]2[C@H]1Cc1ccc(-c2cn[nH]c2)cc13` [Compound 100, (4bR,8aR,9R)-11-(2-(2-methoxyethoxy)ethyl)-3-(1H-pyrazol-4-yl)-6,7,8,8a,9,10-hexahydro-5H-9,4b-(epiminoethano)phenanthrene], for which the concentration for half-maximal inhibition (IC50) at mu opioid receptor (MOR) (setting [1]) is over 1000 nM; on NMDA receptor, 1000 to 10000 nM.
For `CN1CC[C@]23CCCC[C@H]2[C@H]1Cc1cc2ccc(=O)[nH]c2cc13` [Compound 102, (4aR,5R,12bR)-15-methyl-1,2,3,4,4a,5,6,11-octahydro-10H-5,12b-(epiminoethano)naphtho[2,1-g]quinolin-10-one], in that order: over 1000 nM and over 10000 nM.
With `COCCOCCOc1cnccc1Nc1ccc2c(c1)[C@@]13CCCC[C@H]1[C@@H](C2)N(C)CC3` [Compound 66, (4bR,8aR,9R)—N-(3-(2-(2-methoxyethoxy)ethoxy)pyridin-4-yl)-11-methyl-6,7,8,8a,9,10-hexahydro-5H-9,4b-(epiminoethano)phenanthren-3-amine], the values for the IC50 at mu opioid receptor (MOR) (setting [1]) and at NMDA receptor were 100 to 1000 nM and 1000 to 10000 nM, respectively.
As for `COCCOCCOc1ccc(Nc2ccc3c(c2)[C@@]24CCCC[C@H]2[C@@H](C3)N(C)CC4)cn1` [Compound 58, N-{6-[2-(2-methoxyethoxy)ethoxy]pyridin-3-yl}-17-methylmorphinan-3-amine], the IC50 was 10 to 100 nM at mu opioid receptor (MOR) (setting [1]) and over 10000 nM at NMDA receptor.
Consider `COc1ccc(NC(=O)c2ccc3c(c2)[C@@]24CCCC[C@H]2[C@@H](C3)N(C)CC4)cc1` [Compound 38, N-(4-methoxyphenyl)-17-methylmorphinan-3-carboxamide], for which the IC50 at mu opioid receptor (MOR) is 100 to 1000 nM; on NMDA receptor, over 10000 nM.
For `CN1CC[C@]23CCCC[C@H]2[C@H]1Cc1cc2nc[nH]c2cc13` [Compound 81, (4aR,5R,11bR)-14-methyl-1,2,3,4,4a,5,6,10-octahydro-5,11b-(epiminoethano)phenanthro[2,3-d]imidazole], in that order: 10 to 100 nM and over 10000 nM.
`COCCOCCN1CC[C@]23CC(=O)CC[C@H]2[C@H]1Cc1ccc(OC)cc13` [Compound 5, 3-methoxy-17-[2-(2-methoxyethoxy)ethyl]morphinan-6-one]: the IC50 at mu opioid receptor (MOR) was 100 to 1000 nM; on NMDA receptor, over 10000 nM.
`COCCOCCOCCOCCOCCOc1ccc2c(c1)[C@@]13CCCC[C@H]1[C@@H](C2)N(C)CC3` [Compound 14, 17-methyl-3-(2,5,8,11,14-pentaoxahexadecan-16-yloxy)morphinan]: the IC50 at mu opioid receptor (MOR) (setting [1]) is over 1000 nM; on NMDA receptor it was over 10000 nM.
Turning to `COCCN1CC[C@]23CCCC[C@H]2[C@H]1Cc1ccc(Nc2ccncc2)cc13` [Compound 93, 17-(2-methoxyethyl)-N-(pyridin-4-yl)morphinan-3-amine], the IC50 at mu opioid receptor (MOR) was in the range of 10 to 100 nM; on NMDA receptor, 0.1 to 100 nM.
For the compound `COCCOCCOCCN1CC[C@]23CCCC[C@H]2[C@H]1Cc1ccc(OC)cc13` [Compound 13, 3-methoxy-17-{2-[2-(2-methoxyethoxy)ethoxy]ethyl}-morphinan], the IC50 at mu opioid receptor (MOR) (setting [1]) was over 1000 nM; on NMDA receptor it was over 10000 nM.
In the case of `CN1CC[C@]23CCCC[C@H]2[C@H]1Cc1ccc(Nc2ccncn2)cc13` [Compound 50, 17-methyl-N-(pyrimidin-4-yl)morphinan-3-amine], the IC50 at mu opioid receptor (MOR) fell in the range of 100 to 1000 nM; on NMDA receptor, 0.1 to 100 nM.
For `COCCOCCOCCO[C@H]1CC[C@H]2[C@H]3Cc4ccc(O)cc4[C@@]2(CCN3C)C1` [Compound 9, (6α)-6-{2-[2-(2-methoxyethoxy)ethoxy]ethoxy}-17-methylmorphinan-3-ol], in that order: 10 to 100 nM and over 10000 nM.
As for `COCCNC(=O)Nc1ccc2c(c1)[C@@]13CCCC[C@H]1[C@@H](C2)N(C)CC3` [Compound 23, 1-(2-methoxyethyl)-3-(17-methylmorphinan-3-yl)urea], the results for the IC50 at mu opioid receptor (MOR) and at NMDA receptor were 100 to 1000 nM and over 10000 nM, respectively.
Take `CN1CC[C@]23CCCC[C@H]2[C@H]1Cc1ccc(N(c2ccccn2)c2ccccn2)cc13` [Compound 57, 17-methyl-N,N-di(pyridin-2-yl)morphinan-3-amine]: the 50% inhibitory concentration (IC50) is over 1000 nM at mu opioid receptor (MOR) (setting [1]) and 1000 to 10000 nM on NMDA receptor.
`COCCOCCOCCNc1nc2ccc3c(c2s1)[C@@]12CCCC[C@H]1[C@@H](C3)N(C)CC2` [Compound 78, (7R,7aR,11aR)—N-(2-(2-(2-methoxyethoxy)ethoxy)ethyl)-14-methyl-7,7a,8,9,10,11-hexahydro-6H-7,11a-(epiminoethano)phenanthro[3,4-d]thiazol-2-amine]: the half-maximal inhibitory concentration (IC50) at mu opioid receptor (MOR) (setting [1]) was over 1000 nM; on NMDA receptor, over 10000 nM.
For the compound `Oc1ccc2c(c1)[C@@]13CCCC[C@H]1[C@@H](C2)N(CC1CCO1)CC3` (some centres unmarked) [Compound 91, 17-(oxetan-2-ylmethyl)morphinan-3-ol], the values for the IC50 at mu opioid receptor (MOR) and at NMDA receptor were 0.1 to 10 nM and 1000 to 10000 nM, respectively.
For the compound `COCCN1CC[C@]23CCCC[C@H]2[C@H]1Cc1ccc(Nc2cccnc2)cc13` [Compound 86, 17-(2-methoxyethyl)-N-(pyridin-3-yl)morphinan-3-amine], the values for the IC50 on mu opioid receptor (MOR) and on NMDA receptor were 0.1 to 10 nM and 1000 to 10000 nM, respectively.
Turning to `COCCNc1cc2c(cc1[N+](=O)[O-])C[C@@H]1[C@@H]3CCCC[C@]23CCN1C` [Compound 76, N-(2-methoxyethyl)-17-methyl-2-nitromorphinan-3-amine], the half-maximal inhibitory concentration (IC50) at mu opioid receptor (MOR) (setting [1]) was over 1000 nM; at NMDA receptor, over 10000 nM.
`CN1CC[C@]23CCCC[C@H]2[C@H]1Cc1ccc(Nc2ccncc2)cc13` [Compound 49, 17-methyl-N-(pyridin-4-yl)morphinan-3-amine]: the IC50 at mu opioid receptor (MOR) was 100 to 1000 nM; at NMDA receptor, 0.1 to 100 nM.
On to `COCCOCCn1cc(-c2ccc3c(c2)C24CCCCC2C(C3)N(C)CC4)cn1` (centres unmarked) [Compound 65, 3-{1-[2-(2-methoxyethoxy)ethyl]-1H-pyrazol-4-yl}-17-methylmorphinan], for which the figures for the IC50 at mu opioid receptor (MOR) (setting [1]) and on NMDA receptor were over 1000 nM and over 10000 nM, respectively.
In the case of `CN1CC[C@]23CCCC[C@H]2[C@H]1Cc1ccc(Nc2ccnnc2)cc13` [Compound 56, 17-methyl-N-(pyridazin-4-yl)morphinan-3-amine], the half-maximal inhibitory concentration (IC50) was 100 to 1000 nM on mu opioid receptor (MOR) and 0.1 to 100 nM at NMDA receptor.
In the case of `COCCO[C@@H]1CC[C@H]2[C@H]3Cc4ccc(O)cc4[C@@]2(CCN3C)C1` [Compound 31, (6β)-6-(2-methoxyethoxy)-17-methylmorphinan-3-ol], the IC50 at mu opioid receptor (MOR) lay within 0.1 to 10 nM; at NMDA receptor, 1000 to 10000 nM.
For `COc1ccc(Nc2ccc3c(c2)[C@@]24CCCC[C@H]2[C@@H](C3)N(C)CC4)cc1` [Compound 28, N-(4-methoxyphenyl)-17-methylmorphinan-3-amine], the values for the concentration for half-maximal inhibition (IC50) at mu opioid receptor (MOR) and on NMDA receptor were 0.1 to 10 nM and 1000 to 10000 nM, respectively.
As to `CN1CC[C@]23CCCC[C@H]2[C@H]1Cc1cc2nc(N)[nH]c2cc13` [Compound 82, (4aR,5R,11bR)-14-methyl-1,2,3,4,4a,5,6,10-octahydro-5,11b-(epiminoethano)phenanthro[2,3-d]imidazol-9-amine], the IC50 on mu opioid receptor (MOR) (setting [1]) is 100 to 1000 nM; at NMDA receptor it was over 10000 nM.
For `COCCOCCOCCOCCOCCOCC(=O)Nc1ccc2c(c1)[C@@]13CCCC[C@H]1[C@@H](C2)N(C)CC3` [Compound 42, N-(17-methylmorphinan-3-yl)-2,5,8,11,14,17-hexaoxanonadecan-19-amide], in that order: 100 to 1000 nM and over 10000 nM.
For the compound `COCCOCCC(=O)Nc1ccc2c(c1)[C@@]13CCCC[C@H]1[C@@H](C2)N(C)CC3` [Compound 79, 3-(2-methoxyethoxy)-N-((4bR,8aR,9R)-11-methyl-6,7,8,8a,9,10-hexahydro-5H-9,4b-(epiminoethano)phenanthren-3-yl)propanamide], the IC50 on mu opioid receptor (MOR) (setting [1]) was over 1000 nM; at NMDA receptor, over 10000 nM.
For the compound `COCCOCCOCCN1CC[C@]23CC(=O)CC[C@H]2[C@H]1Cc1ccc(O)cc13` [Compound 6, 3-hydroxy-17-{2-[2-(2-methoxyethoxy)ethoxy]ethyl}morphinan-6-one], the half-inhibitory concentration (IC50) at mu opioid receptor (MOR) was 100 to 1000 nM; on NMDA receptor, over 10000 nM.
Regarding `COc1ccccc1C(=O)Nc1ccc2c(c1)[C@@]13CCCC[C@H]1[C@@H](C2)N(C)CC3` [Compound 26, 2-methoxy-N-((4bR,8aR,9R)-11-methyl-6,7,8,8a,9,10-hexahydro-5H-9,4b-(epiminoethano)phenanthren-3-yl)benzamide], the half-maximal inhibitory concentration (IC50) at mu opioid receptor (MOR) (setting [1]) is over 1000 nM; at NMDA receptor, over 10000 nM.
As to `CN1CC[C@]23CCCC[C@H]2[C@H]1Cc1ccc(-c2ccoc2)cc13` [Compound 51, 3-(3-furyl)-17-methylmorphinan], the half-inhibitory concentration (IC50) was 10 to 100 nM on mu opioid receptor (MOR) and 1000 to 10000 nM on NMDA receptor.
Take `COCCOCCOCCOCCOCCOc1ccc(Nc2ccc3c(c2)[C@@]24CCCC[C@H]2[C@@H](C3)N(C)CC4)cn1` [Compound 64, 17-methyl-N-[6-(2,5,8,11,14-pentaoxahexadecan-16-yloxy)pyridin-3-yl]morphinan-3-amine]: the half-maximal inhibitory concentration (IC50) at mu opioid receptor (MOR) (setting [1]) is 10 to 100 nM; on NMDA receptor, over 10000 nM.
`COc1ccc(C(=O)Nc2ccc3c(c2)[C@@]24CCCC[C@H]2[C@@H](C3)N(C)CC4)cc1` [Compound 24, 4-methoxy-N-((4bR,8aR,9R)-11-methyl-6,7,8,8a,9,10-hexahydro-5H-9,4b-(epiminoethano)phenanthren-3-yl)benzamide]: the IC50 on mu opioid receptor (MOR) was 100 to 1000 nM; on NMDA receptor it was over 10000 nM.
